Reference: US20210115104A1, “AMYLIN ANALOGUES” (Zealand Pharma A/S, priority 2015, published 2021)
*1 amine or outer side, *2 acyl side, *3 side chain or, on linkers, in order; H or OH if unused. Where a SMILES comes first, the peptide text is derived from it. Bridges are numbered along the chain shown (N, C = ends). [ ]: non-standard residue; d: D form. The star is where a group is joined. C20 diacid = O=C(O)CCCCCCCCCCCCCCCCCCC(=O)*; γGlu = O=C(O)[C@H](CCC(=O)[*:2])N[*:1]; Hyp = O=C(O)[C@@H]1C[C@@H](O)CN1; NMeI = CC[C@H](C)[C@H](NC)C(=O)O; Sar = CNCC(=O)O

What was measured:
[1] = biological target: T1, human calcitonin receptor (hCTR2) (Homo sapiens, UniProt P30988); assay: hCTR2 cAMP assay (AlphaScreen) in COS7 cells; type: cell-based; details: cAMP induction, COS7 cells expressing hCTR2; Table 1; read-out: hCTR2 EC50
T1 construct: expressed in transfected cells
T1 sequence (P30988 25-474): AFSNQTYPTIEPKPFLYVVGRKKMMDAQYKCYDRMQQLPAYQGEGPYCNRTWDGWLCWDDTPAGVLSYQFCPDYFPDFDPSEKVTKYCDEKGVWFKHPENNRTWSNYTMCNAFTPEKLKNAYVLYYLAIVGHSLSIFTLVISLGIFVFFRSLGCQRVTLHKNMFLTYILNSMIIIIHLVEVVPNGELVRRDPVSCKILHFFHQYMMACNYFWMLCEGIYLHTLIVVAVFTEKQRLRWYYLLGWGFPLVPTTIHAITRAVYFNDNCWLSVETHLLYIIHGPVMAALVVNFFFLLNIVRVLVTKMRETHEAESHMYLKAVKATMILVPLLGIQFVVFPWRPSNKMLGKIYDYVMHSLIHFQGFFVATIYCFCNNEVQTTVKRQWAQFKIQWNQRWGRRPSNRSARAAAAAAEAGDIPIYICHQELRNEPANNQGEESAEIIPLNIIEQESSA
Summary of the method: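 Stable hCTR2 clone in RAMP-naïve COS7 cells stimulated 15 min at 37 °C with increasing peptide concentrations in Tyrode buffer pH 7.4 containing IBMX and 0.1% casein. cAMP in lysates measured by AlphaScreen; EC50 from 4-parameter logistic fit.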

[2] = Assessment of chemical stability (RP-HPLC normalized purity); type: physicochemical; details: 7 days, 40° C., Table 1; for Normalized purity after 7 days, 40° C., pH 4: pH 4, 0.2 mg/ml; for Normalized purity after 7 days, 40° C., pH 6: pH 6, 0.2 mg/ml; for Normalized purity after 7 days, 40° C., pH 7.5: pH 7.5, 0.2 mg/ml; for Normalized purity after 7 days, 40° C., pH 9: pH 9, 0.2 mg/ml
Summary of the method: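 Peptides at 0.2 mg/ml in water adjusted to pH 4, 6, 7.5 or 9, incubated at 40° C for 7 days. Main-peak area-% by RP-HPLC (C8 ammonium formate or C18 TFA gradient, UV 220 nm), normalized to T=0 as 100.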

[3] = biological target: T2, human amylin receptor 3 (hAMYR3), hCTR2 co-expressed with hRAMP3 (Homo sapiens, UniProt O60896+P30988); assay: hAMYR3 cAMP assay (AlphaScreen) in COS7 cells; type: cell-based; details: cAMP induction, COS7 cells expressing hAMYR3; Table 1; read-out: hAMYR3 EC50
T2 construct: expressed in transfected cells
T2 sequence (P30988 25-474): T1 sequence (P30988 25-474)
T2 sequence (O60896 24-148 partner): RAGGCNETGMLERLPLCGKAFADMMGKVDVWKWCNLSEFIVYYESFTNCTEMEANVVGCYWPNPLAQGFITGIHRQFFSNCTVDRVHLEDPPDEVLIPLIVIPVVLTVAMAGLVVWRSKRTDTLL
Summary of the method: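 Stable COS7 clone co-expressing hCTR2 and hRAMP3 was exposed to increasing peptide concentrations in Tyrode buffer (pH 7.4) with 100 µM IBMX and 0.1% casein for 15 min at 37 °C. Lysate cAMP was measured by AlphaScreen; EC50 came from 4-parameter logistic fitting.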

Row | EC50 [1] | Normalized purity after 7 days, 40° C., pH 4 [2] | Normalized purity after 7 days, 40° C., pH 6 [2] | Normalized purity after 7 days, 40° C., pH 7.5 [2] | Normalized purity after 7 days, 40° C., pH 9 [2] | EC50 [3] | Structure (SMILES)
1 | 0.12 nM | A (A = >90%) | A (A = >90%) | B (B = 70-90%) | B (B = 70-90%) | 0.17 nM | CC[C@H](C)[C@@H](C(=O)N[C@@H](CC(C)C)C(=O)N[C@@H](CO)C(=O)N[C@@H](CO)C(=O)N[C@H](C(=O)N[C@@H](CCC(=O)O)C(=O)N[C@H](C(=O)NCC(=O)N[C@@H](CO)C(=O)N[C@@H](CO)C(=O)N[C@H](C(=O)N1C[C@H](O)C[C@H]1C(N)=O)[C@@H](C)O)C(C)C)[C@@H](C)O)N(C)C(=O)[C@H](C)NC(=O)CN(C)C(=O)[C@H](Cc1ccccc1)NC(=O)[C@H](CO)NC(=O)[C@H](CO)NC(=O)[C@H](CCCNC(=N)N)NC(=O)[C@H](CCC(N)=O)NC(=O)[C@H](CC(C)C)NC(=O)[C@H](Cc1ccccc1)NC(=O)[C@H](Cc1c[nH]cn1)NC(=O)[C@H](C)NC(=O)[C@H](CC(C)C)NC(=O)[C@H](CCCNC(=N)N)NC(=O)[C@H](CCC(N)=O)NC(=O)[C@@H](NC(=O)[C@H](C)NC(=O)[C@@H]1CSSC[C@H](NC(=O)[C@H](CCCNC(=N)N)NC(=O)CC[C@H](NC(=O)CCCCCCCCCCCCCCCCCCC(=O)O)C(=O)O)C(=O)N[C@@H](CC(N)=O)C(=O)N[C@@H]([C@@H](C)O)C(=O)N[C@@H](C)C(=O)N[C@@H]([C@@H](C)O)C(=O)N1)[C@@H](C)O [Compound 69, [19CD]-isoGlu-R-C( )-NTAT-C( )-ATQRLAHFLQRSSF-Gly(Me)-A-Ile(Me)-LSSTEVGSST-Hyp-NH2] ({C20 diacid-γGlu}-RCNTATCATQRLAHFLQRSSF[Sar]A[NMeI]LSSTEVGSST[Hyp]-NH2; disulfide 2-7)
2 | 0.1 nM | A (A = >90%) | A (A = >90%) | A (A = >90%) | A (A = >90%) | 0.22 nM | CC[C@H](C)[C@@H](C(=O)N[C@@H](CC(C)C)C(=O)N[C@@H](CO)C(=O)N[C@@H](CO)C(=O)N[C@H](C(=O)N[C@@H](CCC(=O)O)C(=O)N[C@H](C(=O)NCC(=O)N[C@@H](CO)C(=O)N[C@@H](CC(N)=O)C(=O)N[C@H](C(=O)N1CCC[C@H]1C(N)=O)[C@@H](C)O)C(C)C)[C@@H](C)O)N(C)C(=O)[C@H](C)NC(=O)CN(C)C(=O)[C@H](Cc1ccccc1)NC(=O)[C@H](CO)NC(=O)[C@H](CO)NC(=O)[C@H](CCCNC(=N)N)NC(=O)[C@H](CCC(N)=O)NC(=O)[C@H](CC(C)C)NC(=O)[C@H](Cc1ccccc1)NC(=O)[C@H](Cc1c[nH]cn1)NC(=O)[C@H](C)NC(=O)[C@H](CC(C)C)NC(=O)[C@H](CCCNC(=N)N)NC(=O)[C@H](CC(=O)O)NC(=O)[C@@H](NC(=O)[C@H](C)NC(=O)[C@@H]1CSSC[C@H](NC(=O)[C@H](CCCNC(=N)N)NC(=O)CC[C@H](NC(=O)CCCCCCCCCCCCCCCCCCC(=O)O)C(=O)O)C(=O)N[C@@H](CCC(N)=O)C(=O)N[C@@H]([C@@H](C)O)C(=O)N[C@@H](C)C(=O)N[C@@H]([C@@H](C)O)C(=O)N1)[C@@H](C)O [Compound 92, [19CD]-isoGlu-R-C( )-QTAT-C( )-ATDRLAHFLQRSSF-Gly(Me)-A-Ile(Me)-LSSTEVGSNTP-NH2] ({C20 diacid-γGlu}-RCQTATCATDRLAHFLQRSSF[Sar]A[NMeI]LSSTEVGSNTP-NH2; disulfide 2-7)
